How the values were obtained:
Experiment in all cases: relative viability (nuclei count vs DMSO), 5 days (fraction); higher = more cells survive
RAF265 + Pictilisib = compound: Cn1c(Nc2ccc(C(F)(F)F)cc2)nc2cc(Oc3ccnc(-c4ncc(C(F)(F)F)[nH]4)c3)ccc21 [RAF265] + CS(=O)(=O)N1CCN(Cc2cc3nc(-c4cccc5[nH]ncc45)nc(N4CCOCC4)c3s2)CC1 [Pictilisib] (partner 1 µM)
Procedure, shortened: (§1)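 Lung cancer cell lines were pin-tool dosed in 1536-well plates on the day after seeding, with either a lone drug or a fixed anchor-drug dose plus five library-drug doses (not always all listed) in √10 steps. Nuclei were counted on 4× images after 5 days. Relative viability is the ratio of treated-well to vehicle-well nuclei counts, with each value a median of duplicate plates.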

Doramapimod + Olaparib = compound: Cc1ccc(-n2nc(C(C)(C)C)cc2NC(=O)Nc2ccc(OCCN3CCOCC3)c3ccccc23)cc1 [Doramapimod] + O=C(c1cc(Cc2n[nH]c(=O)c3ccccc23)ccc1F)N1CCN(C(=O)C2CC2)CC1 [Olaparib] (partner 8 µM)
Procedure, shortened: as §1

Doramapimod + OSI-027 = compound: Cc1ccc(-n2nc(C(C)(C)C)cc2NC(=O)Nc2ccc(OCCN3CCOCC3)c3ccccc23)cc1 [Doramapimod] + COc1cccc2cc(-c3nc([C@H]4CC[C@H](C(=O)O)CC4)n4ncnc(N)c34)[nH]c12 [OSI-027] (partner 0.5 µM)
Procedure, shortened: as §1

RAF265 + Olaparib = compound: Cn1c(Nc2ccc(C(F)(F)F)cc2)nc2cc(Oc3ccnc(-c4ncc(C(F)(F)F)[nH]4)c3)ccc21 [RAF265] + O=C(c1cc(Cc2n[nH]c(=O)c3ccccc23)ccc1F)N1CCN(C(=O)C2CC2)CC1 [Olaparib] (partner 8 µM)
Procedure, shortened: as §1

For LK-2, the relative viability (RAF265 + Pictilisib; first compound 0.01 µM) was 0.528, the relative viability (RAF265 + Pictilisib; first compound 0.03162 µM) was 0.669 and the relative viability (RAF265 + Pictilisib; first compound 0.1 µM) was 0.604. For the same cell line, the relative viability (RAF265 + Pictilisib; first compound 0.3162 µM) was 0.531, the relative viability (RAF265 + Pictilisib; first compound 1 µM) was 0.403 and the relative viability (Doramapimod + Olaparib; first compound 0.02 µM) was 0.656. It also gave a relative viability (Doramapimod + Olaparib; first compound 0.06325 µM) of 0.778, a relative viability (Doramapimod + Olaparib; first compound 0.2 µM) of 0.656 and a relative viability (Doramapimod + Olaparib; first compound 0.6325 µM) of 0.493. The relative viability (Doramapimod + Olaparib; first compound 2 µM) was 0.397, the relative viability (Doramapimod + OSI-027; first compound 0.02 µM) was 0.204 and the relative viability (Doramapimod + OSI-027; first compound 0.06325 µM) was 0.152. For the same cell line, the relative viability (Doramapimod + OSI-027; first compound 0.2 µM) was 0.18, the relative viability (Doramapimod + OSI-027; first compound 0.6325 µM) was 0.158 and the relative viability (Doramapimod + OSI-027; first compound 2 µM) was 0.186. The relative viability (RAF265 + Olaparib; first compound 0.01 µM) was 0.794, the relative viability (RAF265 + Olaparib; first compound 0.03162 µM) was 0.751 and the relative viability (RAF265 + Olaparib; first compound 0.1 µM) was 0.769. It also gave a relative viability (RAF265 + Olaparib; first compound 0.3162 µM) of 0.668 and a relative viability (RAF265 + Olaparib; first compound 1 µM) of 0.512.
With NCI-H2023 the relative viability (RAF265 + Pictilisib; first compound 0.01 µM) was 0.243, the relative viability (RAF265 + Pictilisib; first compound 0.03162 µM) was 0.212 and the relative viability (RAF265 + Pictilisib; first compound 0.1 µM) was 0.272. The relative viability (RAF265 + Pictilisib; first compound 0.3162 µM) was 0.152, the relative viability (RAF265 + Pictilisib; first compound 1 µM) was 0.214 and the relative viability (Doramapimod + Olaparib; first compound 0.02 µM) was 0.546. For the same cell line, the relative viability (Doramapimod + Olaparib; first compound 0.06325 µM) was 0.534, the relative viability (Doramapimod + Olaparib; first compound 0.2 µM) was 0.491 and the relative viability (Doramapimod + Olaparib; first compound 0.6325 µM) was 0.563. It also gave a relative viability (Doramapimod + Olaparib; first compound 2 µM) of 0.456, a relative viability (Doramapimod + OSI-027; first compound 0.02 µM) of 0.362 and a relative viability (Doramapimod + OSI-027; first compound 0.06325 µM) of 0.362. The relative viability (Doramapimod + OSI-027; first compound 0.2 µM) was 0.369, the relative viability (Doramapimod + OSI-027; first compound 0.6325 µM) was 0.479 and the relative viability (Doramapimod + OSI-027; first compound 2 µM) was 0.301. It also gave a relative viability (RAF265 + Olaparib; first compound 0.01 µM) of 0.491, a relative viability (RAF265 + Olaparib; first compound 0.03162 µM) of 0.452 and a relative viability (RAF265 + Olaparib; first compound 0.1 µM) of 0.544. It also gave a relative viability (RAF265 + Olaparib; first compound 0.3162 µM) of 0.524 and a relative viability (RAF265 + Olaparib; first compound 1 µM) of 0.374.
With NCI-H596 the relative viability (RAF265 + Pictilisib; first compound 0.01 µM) was 0.417, the relative viability (RAF265 + Pictilisib; first compound 0.03162 µM) was 0.338 and the relative viability (RAF265 + Pictilisib; first compound 0.1 µM) was 0.372. For the same cell line, the relative viability (RAF265 + Pictilisib; first compound 0.3162 µM) was 0.381, the relative viability (RAF265 + Pictilisib; first compound 1 µM) was 0.274 and the relative viability (Doramapimod + Olaparib; first compound 0.02 µM) was 0.747. The relative viability (Doramapimod + Olaparib; first compound 0.06325 µM) was 0.695, the relative viability (Doramapimod + Olaparib; first compound 0.2 µM) was 0.749 and the relative viability (Doramapimod + Olaparib; first compound 0.6325 µM) was 0.73. It also gave a relative viability (Doramapimod + Olaparib; first compound 2 µM) of 0.788, a relative viability (Doramapimod + OSI-027; first compound 0.02 µM) of 0.653 and a relative viability (Doramapimod + OSI-027; first compound 0.06325 µM) of 0.658. The relative viability (Doramapimod + OSI-027; first compound 0.2 µM) was 0.665, the relative viability (Doramapimod + OSI-027; first compound 0.6325 µM) was 0.783 and the relative viability (Doramapimod + OSI-027; first compound 2 µM) was 0.57. The relative viability (RAF265 + Olaparib; first compound 0.01 µM) was 0.825, the relative viability (RAF265 + Olaparib; first compound 0.03162 µM) was 0.765 and the relative viability (RAF265 + Olaparib; first compound 0.1 µM) was 0.711. For the same cell line, the relative viability (RAF265 + Olaparib; first compound 0.3162 µM) was 0.727 and the relative viability (RAF265 + Olaparib; first compound 1 µM) was 0.535.
In the case of SK-MES-1, the relative viability (RAF265 + Pictilisib; first compound 0.01 µM) is reported as 0.311, the relative viability (RAF265 + Pictilisib; first compound 0.03162 µM) is reported as 0.301 and the relative viability (RAF265 + Pictilisib; first compound 0.1 µM) is reported as 0.218. It also gave a relative viability (RAF265 + Pictilisib; first compound 0.3162 µM) of 0.214, a relative viability (RAF265 + Pictilisib; first compound 1 µM) of 0.141 and a relative viability (Doramapimod + Olaparib; first compound 0.02 µM) of 0.707. It also gave a relative viability (Doramapimod + Olaparib; first compound 0.06325 µM) of 0.694, a relative viability (Doramapimod + Olaparib; first compound 0.2 µM) of 0.638 and a relative viability (Doramapimod + Olaparib; first compound 0.6325 µM) of 0.683. It also gave a relative viability (Doramapimod + Olaparib; first compound 2 µM) of 0.607, a relative viability (Doramapimod + OSI-027; first compound 0.02 µM) of 0.643 and a relative viability (Doramapimod + OSI-027; first compound 0.06325 µM) of 0.571. For the same cell line, the relative viability (Doramapimod + OSI-027; first compound 0.2 µM) was 0.565, the relative viability (Doramapimod + OSI-027; first compound 0.6325 µM) was 0.573 and the relative viability (Doramapimod + OSI-027; first compound 2 µM) was 0.521. It also gave a relative viability (RAF265 + Olaparib; first compound 0.01 µM) of 0.582, a relative viability (RAF265 + Olaparib; first compound 0.03162 µM) of 0.308 and a relative viability (RAF265 + Olaparib; first compound 0.1 µM) of 0.229. For the same cell line, the relative viability (RAF265 + Olaparib; first compound 0.3162 µM) was 0.208 and the relative viability (RAF265 + Olaparib; first compound 1 µM) was 0.204.
For NCI-H1793, the relative viability (RAF265 + Pictilisib; first compound 0.01 µM) was 0.296, the relative viability (RAF265 + Pictilisib; first compound 0.03162 µM) was 0.267 and the relative viability (RAF265 + Pictilisib; first compound 0.1 µM) was 0.447. It also gave a relative viability (RAF265 + Pictilisib; first compound 0.3162 µM) of 0.216, a relative viability (RAF265 + Pictilisib; first compound 1 µM) of 0.179 and a relative viability (Doramapimod + Olaparib; first compound 0.02 µM) of 0.741. For the same cell line, the relative viability (Doramapimod + Olaparib; first compound 0.06325 µM) was 0.816, the relative viability (Doramapimod + Olaparib; first compound 0.2 µM) was 0.768 and the relative viability (Doramapimod + Olaparib; first compound 0.6325 µM) was 1.08. The relative viability (Doramapimod + Olaparib; first compound 2 µM) was 0.821, the relative viability (Doramapimod + OSI-027; first compound 0.02 µM) was 0.238 and the relative viability (Doramapimod + OSI-027; first compound 0.06325 µM) was 0.262. The relative viability (Doramapimod + OSI-027; first compound 0.2 µM) was 0.278, the relative viability (Doramapimod + OSI-027; first compound 0.6325 µM) was 0.36 and the relative viability (Doramapimod + OSI-027; first compound 2 µM) was 0.242. The relative viability (RAF265 + Olaparib; first compound 0.01 µM) was 0.898, the relative viability (RAF265 + Olaparib; first compound 0.03162 µM) was 0.755 and the relative viability (RAF265 + Olaparib; first compound 0.1 µM) was 0.724. It also gave a relative viability (RAF265 + Olaparib; first compound 0.3162 µM) of 0.382 and a relative viability (RAF265 + Olaparib; first compound 1 µM) of 0.268.
With NCI-H2405 the relative viability (RAF265 + Pictilisib; first compound 0.01 µM) was 0.529, the relative viability (RAF265 + Pictilisib; first compound 0.03162 µM) was 0.473 and the relative viability (RAF265 + Pictilisib; first compound 0.1 µM) was 0.397. For the same cell line, the relative viability (RAF265 + Pictilisib; first compound 0.3162 µM) was 0.368, the relative viability (RAF265 + Pictilisib; first compound 1 µM) was 0.231 and the relative viability (Doramapimod + Olaparib; first compound 0.02 µM) was 0.912. It also gave a relative viability (Doramapimod + Olaparib; first compound 0.06325 µM) of 0.828, a relative viability (Doramapimod + Olaparib; first compound 0.2 µM) of 0.765 and a relative viability (Doramapimod + Olaparib; first compound 0.6325 µM) of 0.816. The relative viability (Doramapimod + Olaparib; first compound 2 µM) was 0.836, the relative viability (Doramapimod + OSI-027; first compound 0.02 µM) was 0.654 and the relative viability (Doramapimod + OSI-027; first compound 0.06325 µM) was 0.596. For the same cell line, the relative viability (Doramapimod + OSI-027; first compound 0.2 µM) was 0.606, the relative viability (Doramapimod + OSI-027; first compound 0.6325 µM) was 0.74 and the relative viability (Doramapimod + OSI-027; first compound 2 µM) was 0.598. For the same cell line, the relative viability (RAF265 + Olaparib; first compound 0.01 µM) was 0.96, the relative viability (RAF265 + Olaparib; first compound 0.03162 µM) was 0.88 and the relative viability (RAF265 + Olaparib; first compound 0.1 µM) was 0.834. For the same cell line, the relative viability (RAF265 + Olaparib; first compound 0.3162 µM) was 0.838 and the relative viability (RAF265 + Olaparib; first compound 1 µM) was 0.514.
